# Values joined by “and” are separate entries in the source; they are usually repeats but may differ in a detail not shown here. Identical values can stand only once. Active and inactive are the calls of the source. The calls were made as follows: active = viability on the fitted dose curve at most 10% of control; inactive = the rest.
# Test system: SW 1271 complex tumor spheroid viability
# Test: Anticancer human tumor SW 1271 cell line growth inhibition;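 as to IC50: spheroids exposed to agents for seven days before readout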;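 as to viability, T/C: spheroids exposed to agents for seven days before readout; percent of DMSO vehicle control luminescence so 100% = vehicle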
# Settings: for viability, T/C: stronger effect = lower value
# Method in brief: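 Complex spheroids of malignant cells with endothelial cells and mesenchymal stem cells; agents alone or combined, from near clinical Cmax (or 10 microM if unknown) down in half-log steps, 0.25% DMSO final.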
# [1] = curve of first compound, second compound 30 pM
# [2] = curve of first compound, second compound 94.9 pM
# [3] = curve of first compound, second compound 0.0003 µM
# [4] = curve of first compound, second compound 0.000949 µM
# [5] = curve of first compound, second compound 0.003 µM
# [6] = second compound 30 pM, first compound 0.0316 µM
# [7] = second compound 30 pM, first compound 0.1 µM
# [8] = second compound 30 pM, first compound 0.316 µM
# [9] = second compound 30 pM, first compound 1 µM
# [10] = second compound 30 pM, first compound 3.16 µM
# [11] = second compound 30 pM, first compound 10 µM
# [12] = second compound 94.9 pM, first compound 0.0316 µM
# [13] = second compound 94.9 pM, first compound 0.1 µM
# [14] = second compound 94.9 pM, first compound 0.316 µM
# [15] = second compound 94.9 pM, first compound 1 µM
# [16] = second compound 94.9 pM, first compound 3.16 µM
# [17] = second compound 94.9 pM, first compound 10 µM
# [18] = second compound 0.0003 µM, first compound 0.0316 µM
# [19] = second compound 0.0003 µM, first compound 0.1 µM
# [20] = second compound 0.0003 µM, first compound 0.316 µM
# [21] = second compound 0.0003 µM, first compound 1 µM
# [22] = second compound 0.0003 µM, first compound 3.16 µM
# [23] = second compound 0.0003 µM, first compound 10 µM
# [24] = second compound 0.000949 µM, first compound 0.0316 µM
# [25] = second compound 0.000949 µM, first compound 0.1 µM
# [26] = second compound 0.000949 µM, first compound 0.316 µM
# [27] = second compound 0.000949 µM, first compound 1 µM
# [28] = second compound 0.000949 µM, first compound 3.16 µM
# [29] = second compound 0.000949 µM, first compound 10 µM
# [30] = second compound 0.003 µM, first compound 0.0316 µM
# [31] = second compound 0.003 µM, first compound 0.1 µM
# [32] = second compound 0.003 µM, first compound 0.316 µM
# [33] = second compound 0.003 µM, first compound 1 µM
# [34] = second compound 0.003 µM, first compound 3.16 µM
# [35] = second compound 0.003 µM, first compound 10 µM
structure (smiles),measurement,setting,value
O=C(c1cc(Cc2n[nH]c(=O)c3ccccc23)ccc1F)N1CCN(C(=O)C2CC2)CC1 + Cn1nnc2c(C(N)=O)ncn2c1=O,IC50,"curve of first compound, second compound 1 µM",2200 nM
same,IC50,"curve of first compound, second compound 3.16 µM",2110 nM
same,IC50,"curve of first compound, second compound 10 µM",1640 nM
same,IC50,"curve of first compound, second compound 31.6 µM",443 nM
same,IC50,"curve of first compound, second compound 100 µM",< 94.9 nM
same,"viability, T/C","second compound 1 µM, first compound 0.0949 µM",95.3%
same,"viability, T/C","second compound 1 µM, first compound 0.3 µM",78.7%
same,"viability, T/C","second compound 1 µM, first compound 0.949 µM",69.1%
same,"viability, T/C","second compound 1 µM, first compound 3 µM",45.7%
same,"viability, T/C","second compound 1 µM, first compound 9.49 µM",24.4%
same,"viability, T/C","second compound 1 µM, first compound 30 µM",32.5%
same,"viability, T/C","second compound 3.16 µM, first compound 0.0949 µM",86.3%
same,"viability, T/C","second compound 3.16 µM, first compound 0.3 µM",82.2%
same,"viability, T/C","second compound 3.16 µM, first compound 0.949 µM",70.7%
same,"viability, T/C","second compound 3.16 µM, first compound 3 µM",41%
same,"viability, T/C","second compound 3.16 µM, first compound 9.49 µM",33%
same,"viability, T/C","second compound 3.16 µM, first compound 30 µM",34.4%
same,"viability, T/C","second compound 10 µM, first compound 0.0949 µM",95.6%
same,"viability, T/C","second compound 10 µM, first compound 0.3 µM",86.2%
same,"viability, T/C","second compound 10 µM, first compound 0.949 µM",63.2%
same,"viability, T/C","second compound 10 µM, first compound 3 µM",34.5%
same,"viability, T/C","second compound 10 µM, first compound 9.49 µM",34.4%
same,"viability, T/C","second compound 10 µM, first compound 30 µM",27%
same,"viability, T/C","second compound 31.6 µM, first compound 0.0949 µM",82.5%
same,"viability, T/C","second compound 31.6 µM, first compound 0.3 µM",58.1%
same,"viability, T/C","second compound 31.6 µM, first compound 0.949 µM",33.9%
same,"viability, T/C","second compound 31.6 µM, first compound 3 µM",33.1%
same,"viability, T/C","second compound 31.6 µM, first compound 9.49 µM",33.5%
same,"viability, T/C","second compound 31.6 µM, first compound 30 µM",27.6%
same,"viability, T/C","second compound 100 µM, first compound 0.0949 µM",35.1%
same,"viability, T/C","second compound 100 µM, first compound 0.3 µM",26.4%
same,"viability, T/C","second compound 100 µM, first compound 0.949 µM",29%
same,"viability, T/C","second compound 100 µM, first compound 3 µM",32.2%
same,"viability, T/C","second compound 100 µM, first compound 9.49 µM",28.8%
same,"viability, T/C","second compound 100 µM, first compound 30 µM",28.2%
CC1COCCN1c1cc(-c2ccnn2C)c2ccnc(-c3ccn[nH]3)c2n1 (configuration not stated),"viability, T/C",compound 0.0316 µM,76.6% and 87.1% and 78.6%
same,"viability, T/C",compound 0.1 µM,50.5% and 44.6% and 58.8%
same,"viability, T/C",compound 0.316 µM,25.2% and 31.1% and 21.6%
same,"viability, T/C",compound 1 µM,4.08% and 5.26% and 4.1%
same,"viability, T/C",compound 3.16 µM,2.44% and 3.8% and 2.04%
same,"viability, T/C",compound 10 µM,2.18% and 3.01% and 1.85%
same,IC50,curve of compound,107 nM and 93.4 nM and 131 nM
COc1ccc([C@@H](O)c2cc(-c3ncnc4cc(N5CCOCC5)ccc34)c(F)cc2Cl)nn1,"viability, T/C",compound 0.0316 µM,92.9% and 91.6% and 101%
same,"viability, T/C",compound 0.1 µM,93.1% and 83% and 92.6%
same,"viability, T/C",compound 0.316 µM,92.8% and 78.7% and 83.9%
same,outcome,compound 1 µM,inactive
same,"viability, T/C",compound 1 µM,77.2% and 72.9%
same,"viability, T/C",compound 3.16 µM,44.9% and 38.3% and 44%
same,"viability, T/C",compound 10 µM,8.13% and 13.3% and 6.11%
same,IC50,curve of compound,2630 nM and 1790 nM and 2520 nM
CNCc1ccc(-c2cc(-c3nc(-c4ccc(S(=O)(=O)C(C)C)cc4)cnc3N)on2)cc1,"viability, T/C",compound 0.00949 µM,105% and 99.4% and 104%
same,"viability, T/C",compound 0.03 µM,103% and 101% and 109%
same,"viability, T/C",compound 0.0949 µM,92% and 70.1% and 88.4%
same,"viability, T/C",compound 0.3 µM,26.4% and 24.2% and 45.3%
same,"viability, T/C",compound 0.949 µM,6.64% and 6.62% and 10.9%
same,"viability, T/C",compound 3 µM,0.13% and 0.12% and 0.2%
same,IC50,curve of compound,199 nM and 159 nM and 266 nM
CC(C)n1c(=O)n(C)c2cnc3cc(F)c(-c4ccc(OCCCN5CCCCC5)nc4)cc3c21 + COc1cc2c(cc1O)CCNC21CSC2c3c(OC(C)=O)c(C)c4c(c3C(COC1=O)N1C(O)C3Cc5cc(C)c(OC)c(O)c5C(C21)N3C)OCO4,IC50,[1],931 nM
same,IC50,[2],< 31.6 nM
same,IC50,[3],< 31.6 nM
same,IC50,[4],< 31.6 nM
same,IC50,[5],< 31.6 nM
same,"viability, T/C",[6],65%
same,"viability, T/C",[7],57.5%
same,"viability, T/C",[8],53.4%
same,"viability, T/C",[9],45.6%
same,"viability, T/C",[10],51.8%
same,"viability, T/C",[11],29.3%
same,"viability, T/C",[12],29.6%
same,"viability, T/C",[13],28.7%
same,"viability, T/C",[14],22.3%
same,"viability, T/C",[15],24.2%
same,"viability, T/C",[16],20.9%
same,"viability, T/C",[17],15.8%
same,"viability, T/C",[18],28.5%
same,"viability, T/C",[19],33.3%
same,"viability, T/C",[20],24.7%
same,"viability, T/C",[21],24.2%
same,"viability, T/C",[22],19.1%
same,"viability, T/C",[23],12.9%
same,"viability, T/C",[24],4.24%
same,"viability, T/C",[25],3.92%
same,"viability, T/C",[26],2.81%
same,"viability, T/C",[27],1.61%
same,"viability, T/C",[28],1.37%
same,"viability, T/C",[29],1.05%
same,"viability, T/C",[30],0.12%
same,"viability, T/C",[31],0.11%
same,"viability, T/C",[32],0.09%
same,"viability, T/C",[33],0.1%
same,"viability, T/C",[34],0.1%
same,"viability, T/C",[35],0.16%
Cc1cc(C)c(CNC(=O)c2cc(-c3ccc(CN4CCOCC4)cc3)cc3c2cnn3C2CCCC2)c(=O)[nH]1 + COc1cc2c(cc1O)CCNC21CSC2c3c(OC(C)=O)c(C)c4c(c3C(COC1=O)N1C(O)C3Cc5cc(C)c(OC)c(O)c5C(C21)N3C)OCO4,IC50,[1],> 10000 nM
same,IC50,[2],987 nM
same,IC50,[3],< 31.6 nM
same,IC50,[4],< 31.6 nM
same,IC50,[5],< 31.6 nM
same,"viability, T/C",[6],86.2%
same,"viability, T/C",[7],92.9%
same,"viability, T/C",[8],90.4%
same,"viability, T/C",[9],87.4%
same,"viability, T/C",[10],84.5%
same,"viability, T/C",[11],66.2%
same,"viability, T/C",[12],59.6%
same,"viability, T/C",[13],63.3%
same,"viability, T/C",[14],66.6%
same,"viability, T/C",[15],49.8%
same,"viability, T/C",[16],40.7%
same,"viability, T/C",[17],34.4%
same,"viability, T/C",[18],32.9%
same,"viability, T/C",[19],35.7%
same,"viability, T/C",[20],34.1%
same,"viability, T/C",[21],30.3%
same,"viability, T/C",[22],29.3%
same,"viability, T/C",[23],24%
same,"viability, T/C",[24],2.96%
same,"viability, T/C",[25],14.8%
same,"viability, T/C",[26],2.88%
same,"viability, T/C",[27],3.26%
same,"viability, T/C",[28],1.94%
same,"viability, T/C",[29],1.96%
same,"viability, T/C",[30],0.23%
same,"viability, T/C",[31],0.24%
same,"viability, T/C",[32],0.28%
same,"viability, T/C",[33],0.25%
same,"viability, T/C",[34],0.21%
same,"viability, T/C",[35],0.29%

# From PubChem BioAssay AID1845215 (Molecular Pharmacology Branch, DTP, NCI, 2023)
